Laboratory results as given in patent US12077503B2, “Substituted cyclic amides and their use as herbicides” (FMC CORPORATION, priority 2015, dated 2024).

How the values were obtained:
Type in all cases: in vivo
[1] = system: ivy-leaved morning glory (Ipomoea hederacea); assay: Test G Pre-Emergence Protocol; conditions: Ipomoea, pre-emergence, 312 h, evaluated after 13 days; for pest or weed control at 15.625 g/ha: 15.625 g ai/ha; for pest or weed control at 15.625 g/ha / pest or weed control at 250 g/ha: read-out: Morningglory, Ivy-leaved damage rating (100=total damage to plant; 0=no damage to plant); for pest or weed control at 62.5 g/ha: 62.5 g ai/ha, 100=total damage to plant, 0=no damage to plant, read-out: Morningglory, Ivy-leaved damage rating; for pest or weed control at 250 g/ha: 250 g ai/ha
How it was run: (§1)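 Pots of seeds in standard soil were grown for one day in a glasshouse (24/16 °C day/night, 14 h light, 65% humidity), then sprayed with compound in acetone/water 50:50 with 0.5% Tween 20 at 15.625, 62.5 or 250 g/ha. Damage was scored after 13 days on a 0 (none) to 100 (total) scale.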

[2] = system: corn (Zea mays); assay: Test G Pre-Emergence Protocol; conditions: Zea mays, pre-emergence, 312 h, evaluated after 13 days; for plant injury at 15.625 g/ha: 15.625 g ai/ha; for plant injury at 15.625 g/ha / plant injury at 250 g/ha: read-out: Corn damage rating (100=total damage to plant; 0=no damage to plant); for plant injury at 62.5 g/ha: 62.5 g ai/ha, 100=total damage to plant, 0=no damage to plant, read-out: Corn damage rating; for plant injury at 250 g/ha: 250 g ai/ha
How it was run: as §1

[3] = system: redroot pigweed (Amaranthus retroflexus); assay: Test G Pre-Emergence Protocol; conditions: Amaranthus retroflexus, pre-emergence, 312 h, evaluated after 13 days; for pest or weed control at 15.625 g/ha: 15.625 g ai/ha; for pest or weed control at 15.625 g/ha / pest or weed control at 250 g/ha: read-out: Pigweed, Redroot damage rating (100=total damage to plant; 0=no damage to plant); for pest or weed control at 62.5 g/ha: 62.5 g ai/ha, 100=total damage to plant, 0=no damage to plant, read-out: Pigweed, Redroot damage rating; for pest or weed control at 250 g/ha: 250 g ai/ha
How it was run: as §1

[4] = system: barnyardgrass (Echinochloa crus-galli); assay: Test G Pre-Emergence Protocol; conditions: Echinochloa crus-galli, pre-emergence, 312 h, evaluated after 13 days; for pest or weed control at 15.625 g/ha: 15.625 g ai/ha; for pest or weed control at 15.625 g/ha / pest or weed control at 250 g/ha: read-out: Barnyardgrass damage rating (100=total damage to plant; 0=no damage to plant); for pest or weed control at 62.5 g/ha: 62.5 g ai/ha, 100=total damage to plant, 0=no damage to plant, read-out: Barnyardgrass damage rating; for pest or weed control at 250 g/ha: 250 g ai/ha
How it was run: as §1

[5] = system: velvetleaf (Abutilon theophrasti); assay: Test G Pre-Emergence Protocol; conditions: Abutilon theophrasti, pre-emergence, 312 h, evaluated after 13 days; for pest or weed control at 15.625 g/ha: 15.625 g ai/ha; for pest or weed control at 15.625 g/ha / pest or weed control at 250 g/ha: read-out: Velvetleaf damage rating (100=total damage to plant; 0=no damage to plant); for pest or weed control at 62.5 g/ha: 62.5 g ai/ha, 100=total damage to plant, 0=no damage to plant, read-out: Velvetleaf damage rating; for pest or weed control at 250 g/ha: 250 g ai/ha
How it was run: as §1

[6] = system: giant foxtail (Setaria faberi); assay: Test G Pre-Emergence Protocol; conditions: Setaria faberi, pre-emergence, 312 h, evaluated after 13 days; for pest or weed control at 15.625 g/ha: 15.625 g ai/ha; for pest or weed control at 15.625 g/ha / pest or weed control at 250 g/ha: read-out: Foxtail, Giant damage rating (100=total damage to plant; 0=no damage to plant); for pest or weed control at 62.5 g/ha: 62.5 g ai/ha, 100=total damage to plant, 0=no damage to plant, read-out: Foxtail, Giant damage rating; for pest or weed control at 250 g/ha: 250 g ai/ha
How it was run: as §1

[7] = system: ivy-leaved morning glory (Ipomoea hederacea); assay: Test G Post-Emergence Protocol; conditions: Ipomoea, post-emergence, 312 h, read-out: Morningglory, Ivy-leaved damage rating; for pest or weed control at 15.625 g/ha: 15.625 g ai/ha, evaluated after 13 days (100=total damage to plant; 0=no damage to plant); for pest or weed control at 62.5 g/ha: 62.5 g ai/ha; for pest or weed control at 62.5 g/ha / pest or weed control at 250 g/ha: evaluated after 13 days, 100=total damage to plant, 0=no damage to plant; for pest or weed control at 250 g/ha: 250 g ai/ha
How it was run: (§2)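 Damage was rated 13 days after treatment from 0 (none) to 100 (plant killed). Compound was applied as a spray at 15.625, 62.5 or 250 g/ha in 50:50 acetone/water containing 0.5% Tween 20, onto 8-day-old potted plants kept in a glasshouse (24/16 °C, 14 h light, 65% humidity).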

[8] = system: corn (Zea mays); assay: Test G Post-Emergence Protocol; conditions: Zea mays, post-emergence, 312 h, read-out: Corn damage rating; for plant injury at 15.625 g/ha: 15.625 g ai/ha, evaluated after 13 days (100=total damage to plant; 0=no damage to plant); for plant injury at 62.5 g/ha: 62.5 g ai/ha; for plant injury at 62.5 g/ha / plant injury at 250 g/ha: evaluated after 13 days, 100=total damage to plant, 0=no damage to plant; for plant injury at 250 g/ha: 250 g ai/ha
How it was run: as §2

[9] = system: redroot pigweed (Amaranthus retroflexus); assay: Test G Post-Emergence Protocol; conditions: Amaranthus retroflexus, post-emergence, 312 h, read-out: Pigweed, Redroot damage rating; for pest or weed control at 15.625 g/ha: 15.625 g ai/ha, evaluated after 13 days (100=total damage to plant; 0=no damage to plant); for pest or weed control at 62.5 g/ha: 62.5 g ai/ha; for pest or weed control at 62.5 g/ha / pest or weed control at 250 g/ha: evaluated after 13 days, 100=total damage to plant, 0=no damage to plant; for pest or weed control at 250 g/ha: 250 g ai/ha
How it was run: as §2

[10] = system: barnyardgrass (Echinochloa crus-galli); assay: Test G Post-Emergence Protocol; conditions: Echinochloa crus-galli, post-emergence, 312 h, read-out: Barnyardgrass damage rating; for pest or weed control at 15.625 g/ha: 15.625 g ai/ha, evaluated after 13 days (100=total damage to plant; 0=no damage to plant); for pest or weed control at 62.5 g/ha: 62.5 g ai/ha; for pest or weed control at 62.5 g/ha / pest or weed control at 250 g/ha: evaluated after 13 days, 100=total damage to plant, 0=no damage to plant; for pest or weed control at 250 g/ha: 250 g ai/ha
How it was run: as §2

[11] = system: velvetleaf (Abutilon theophrasti); assay: Test G Post-Emergence Protocol; conditions: Abutilon theophrasti, post-emergence, 312 h, read-out: Velvetleaf damage rating; for pest or weed control at 15.625 g/ha: 15.625 g ai/ha, evaluated after 13 days (100=total damage to plant; 0=no damage to plant); for pest or weed control at 62.5 g/ha: 62.5 g ai/ha; for pest or weed control at 62.5 g/ha / pest or weed control at 250 g/ha: evaluated after 13 days, 100=total damage to plant, 0=no damage to plant; for pest or weed control at 250 g/ha: 250 g ai/ha
How it was run: as §2

[12] = system: giant foxtail (Setaria faberi); assay: Test G Post-Emergence Protocol; conditions: Setaria faberi, post-emergence, 312 h, read-out: Foxtail, Giant damage rating; for pest or weed control at 15.625 g/ha: 15.625 g ai/ha, evaluated after 13 days (100=total damage to plant; 0=no damage to plant); for pest or weed control at 62.5 g/ha: 62.5 g ai/ha; for pest or weed control at 62.5 g/ha / pest or weed control at 250 g/ha: evaluated after 13 days, 100=total damage to plant, 0=no damage to plant; for pest or weed control at 250 g/ha: 250 g ai/ha
How it was run: as §2

CN1C[C@H](c2ccc(C(F)(F)F)cc2)[C@@H](C(=O)Nc2cc(C#N)ccn2)C1=O (racemic) [Compound 1734]
pest or weed control at 15.625 g/ha [1]: 0%
pest or weed control at 62.5 g/ha [1]: 0%
pest or weed control at 250 g/ha [1]: 0%
plant injury at 15.625 g/ha [2]: 0%
plant injury at 62.5 g/ha [2]: 0%
plant injury at 250 g/ha [2]: 0%
pest or weed control at 15.625 g/ha [3]: 0%
pest or weed control at 62.5 g/ha [3]: 0%
pest or weed control at 250 g/ha [3]: 0%
pest or weed control at 15.625 g/ha [4]: 0%
pest or weed control at 62.5 g/ha [4]: 0%
pest or weed control at 250 g/ha [4]: 0%
pest or weed control at 15.625 g/ha [5]: 0%
pest or weed control at 62.5 g/ha [5]: 0%
pest or weed control at 250 g/ha [5]: 0%
pest or weed control at 15.625 g/ha [6]: 0%
pest or weed control at 62.5 g/ha [6]: 0%
pest or weed control at 250 g/ha [6]: 10%
pest or weed control at 15.625 g/ha [7]: 0%
pest or weed control at 62.5 g/ha [7]: 0%
pest or weed control at 250 g/ha [7]: 0%
plant injury at 15.625 g/ha [8]: 0%
plant injury at 62.5 g/ha [8]: 0%
plant injury at 250 g/ha [8]: 0%
pest or weed control at 15.625 g/ha [9]: 0%
pest or weed control at 62.5 g/ha [9]: 0%
pest or weed control at 250 g/ha [9]: 0%
pest or weed control at 15.625 g/ha [10]: 0%
pest or weed control at 62.5 g/ha [10]: 0%
pest or weed control at 250 g/ha [10]: 0%
pest or weed control at 15.625 g/ha [11]: 0%
pest or weed control at 62.5 g/ha [11]: 0%
pest or weed control at 250 g/ha [11]: 0%
pest or weed control at 15.625 g/ha [12]: 0%
pest or weed control at 62.5 g/ha [12]: 0%
pest or weed control at 250 g/ha [12]: 0%

C=C(C)c1ccccc1NC(=O)[C@H]1C(=O)N(C)C[C@@H]1c1cccc(C(F)(F)F)c1 (racemic) [Compound 1736]
pest or weed control at 15.625 g/ha [1]: 0%
pest or weed control at 62.5 g/ha [1]: 0%
pest or weed control at 250 g/ha [1]: 0%
plant injury at 15.625 g/ha [2]: 0%
plant injury at 62.5 g/ha [2]: 0%
plant injury at 250 g/ha [2]: 60%
pest or weed control at 15.625 g/ha [3]: 0%
pest or weed control at 62.5 g/ha [3]: 20%
pest or weed control at 250 g/ha [3]: 10%
pest or weed control at 15.625 g/ha [4]: 0%
pest or weed control at 62.5 g/ha [4]: 60%
pest or weed control at 250 g/ha [4]: 90%
pest or weed control at 15.625 g/ha [5]: 0%
pest or weed control at 62.5 g/ha [5]: 10%
pest or weed control at 250 g/ha [5]: 10%
pest or weed control at 15.625 g/ha [6]: 80%
pest or weed control at 62.5 g/ha [6]: 90%
pest or weed control at 250 g/ha [6]: 90%
pest or weed control at 15.625 g/ha [7]: 0%
pest or weed control at 62.5 g/ha [7]: 0%
pest or weed control at 250 g/ha [7]: 40%
plant injury at 15.625 g/ha [8]: 0%
plant injury at 62.5 g/ha [8]: 0%
plant injury at 250 g/ha [8]: 70%
pest or weed control at 15.625 g/ha [9]: 0%
pest or weed control at 62.5 g/ha [9]: 0%
pest or weed control at 250 g/ha [9]: 0%
pest or weed control at 15.625 g/ha [10]: 0%
pest or weed control at 62.5 g/ha [10]: 30%
pest or weed control at 250 g/ha [10]: 70%
pest or weed control at 15.625 g/ha [11]: 0%
pest or weed control at 62.5 g/ha [11]: 0%
pest or weed control at 250 g/ha [11]: 0%
pest or weed control at 15.625 g/ha [12]: 30%
pest or weed control at 62.5 g/ha [12]: 80%
pest or weed control at 250 g/ha [12]: 80%
